Experimental data reported in article PMC6099102, “Effect of the Nature of Donor Atoms on the Thermodynamic, Kinetic and Relaxation Properties of Mn(II) Complexes Formed With Some Trisubstituted 12-Membered Macrocyclic Ligands” (Frontiers in Chemistry, 2018).
Read-outs that look alike come from different tables or passages of the source.

Tests used:
[1] = Dissociation kinetics of the Mn(II) complexes (acid catalyzed dissociation, metal or ligand exchange reactions); type: physicochemical; settings: I = 0.15 M NaCl, 25 °C; for t1/2 pH = 7.4 cM = 10^−5 M: half-life of dissociation calculated for pH 7.4, 10 μM exchanging metal ion; for t1/2 0.1 M HCl: half-life of dissociation calculated for 0.1 M H+
Description: The dissociation reactions were followed by UV-vis spectrophotometry at 269 nm for the pyclen derivatives or at 300 nm for other complexes in the pH range of 3.6–5.0 for the exchange reactions with Cu(II) and up to pH = 6.0 when Zn(II) was used as a ligand scavenger. The acid catalyzed dissociation reactions were performed in the HCl concentration range of 0.05–1.0 M. The concentration of the complexes in the samples was 0.25 mM, while the concentration of the exchanging metal ion in the metal initiated transchelation reactions was 10–40 times higher to ensure pseudo-first-order conditions. Relaxometry was used to follow the transchelation reactions of [Mn(DOTAM)]^2+, [Mn(DO3AM^H)]^2+, [Mn(DO3A)]^−, [Mn(PCTA)]^− and [Mn(ODO3A)]^− with Cu(II)/Zn(II) ions in the pH range of 3.6–5.5 (Figures S17–S19 in Supplementary Material). The concentration of the complexes in these samples was set to 1.0–2.0 mM to achieve relatively large change during the dissociation reaction. […] The temperature was maintained at 25 °C and the ionic strength of the solutions was kept constant at 0.15 M with NaCl. N,N′-dimethyl- (DMP) and N-methyl-piperazine (NMP) buffers (log K2H = 4.18 and 4.90 at 25 °C and I = 0.15 M NaCl, respectively) were used at 0.05 M concentration to keep the pH constant. The pseudo-first-order rate constants (kobs) were calculated by fitting the absorbance or relaxivity-time data pairs to Equation (1) (1) Xt=(X0-Xe)e^-kobst+Xe where Xt, X0, and Xe are the absorbance or relaxivity at time t, at the start and at equilibrium, respectively. The calculations were performed with the computer program Micromath Scientist, version 2.0 (Salt Lake City, UT, USA) using a standard least-squares procedure.
The kinetic inertness of the Mn(II) complexes is the other important parameter for the complexes considered for use in vivo. The inertness of Mn(II) complexes formed with trisubstituted 12-memberd macrocyclic ligands were characterized either by studying the rates of acid catalyzed dissociation or by studying transmetallation reactions occurring between the complexes and a suitable exchanging metal ion such as Zn(II) or Cu(II). The demetallation reactions of labile complexes were performed at high pH by following the ligand exchange reactions with trans-CDTA and DTPA ligands. The demetallation reactions were studied in the presence of a large Cu(II)/Zn(II)/trans-CDTA/DTPA excess or by using high acid concentration in order to ensure pseudo-first-order conditions (Equation 6). Scheme 1 outlines all the possible dissociation pathways for the Mn(II) complexes. […] The reactions of the released Mn(II) and L ligand with the exchanging L' and M' reactants are assumed to be very rapid.
The rate of dissociation can be expressed by the Equation (6), where kobs is the pseudo-first-order rate constant and [Mn(L)]t is the total concentration of the species containing [Mn(L)] complex. The [Mn(L)]t will differ slightly depending on the experimental conditions (in the presence of a large metal or ligand excess). As [Mn(L)]t = [Mn(L)] + [Mn(HL)] + [Mn(H2L)] + [Mn(L)M] + [Mn(L)(L')] + [Mn(HL)(L')] for reactions performed at high pH (in the pH range of 3.0–5.0 often applied in Cu(II) exchange reactions) will involve fewer protonated species while the acid catalyzed dissociation reactions run in the strongly acidic media (0.1–1.0 M acid concentration range) predominantly contain protonated species ([Mn(L)]t = [Mn(L)]+[Mn(HL)]+[Mn(H2L)]). (6) -d[MnL]t/dt=kobs[MnL]t
By taking into account the various complex species and the possible reaction pathways as well as the protonation and stability constants of the reactive intermediates, the following equation (Equation 7) can be derived to describe the rates of dissociation. […]

[2] = Longitudinal water proton relaxivity (r1p) of the Mn(II) complexes; type: physicochemical
Description: The relaxometric data were collected using a Bruker Minispec MQ20 NMR relaxometer. […] A datapoint plotted on figures represents an average of 5–6 T1 measurements (Figures S3–S9 in Supplementary Material). The data were fitted by using the molar r1p relaxivity value of the MnCl2 ([…] at 0.49 T and 25 °C). The equilibrium constants were calculated using the PSEQUAD program (Zékány and Nagypál, [1985]).
The longitudinal water proton relaxation rates (r1 = 1/T1-1/Tw) were measured at 20 MHz with a Bruker Minispec MQ-20 relaxometer (Bruker Biospin, Germany). Samples were thermostated by using a circulating water bath at 25.0 ± 0.2 °C. The longitudinal relaxation times (T1) were measured by the inversion-recovery method (180° − τ − 90°), averaging 5–6 data points collected for each concentration point obtained from 14 different τ values (τ values ranging between 0 to at least 6 times the expected T1). The relaxivity of the complexes was determined by titrating a nearly 1.0 mM ligand solution with a Mn(II) stock solution at pH = 7.22–7.43 (50 mM HEPES buffer, I = 0.15 M NaCl, 25 °C). Under these conditions, the only Mn(II) ion containing species present in solution is the [Mn(L)], which was supported by the r1 vs. pH profiles. The relaxivity of the complex was determined as the slope of the strait line obtained by plotting 1/T1p values as a function of Mn(II) concentration for samples with [Ligand] > [Mn(II)]. The relaxivity of [Mn(DOTP)]^6− and [Mn(DO3P)]^4− was determined in the pH range of 10.0–11.0 and 8.5–9.3, respectively where mainly the [Mn(DO3P)]^4− and [Mn(DOTP)]^6− complex exists in solution (Figures S4 and S9 in Supplementary Material).
The relaxivity (r1p, mM^−1s^−1) is defined as the longitudinal water proton relaxation rate in a solution containing 1.0 mM concentration of the paramagnetic species. It characterizes the efficiency of a paramagnetic metal chelate to enhance the solvent proton relaxation rate at a given magnetic field (usually 20 MHz) and temperature. The inner-sphere contribution to relaxivity is directly proportional to the number of metal bound water molecules (q), and therefore, relaxivity values may provide some useful information on the hydration state of paramagnetic complexes of similar molecular weights and electronic relaxation times. […] The r1p values of the Mn(II) complexes formed with heptadentate 12-membered macrocyclic ligands were determined at 0.5 T field strength and 25 °C and reported in Table 4 along with some relaxivity data published for the complexes of hexa-, hepta- and octadentate ligands. […] Below these pH ranges the phosphonate moieties undergo protonation, which further increases the relaxivity (2.60–2.90 mM^−1s^−1 values were observed near pH = 7.4, see Supplementary Material). Similar increase in the relaxivity (to 3.20 mM^−1s^−1 at 20 MHz, 37 °C) is observed for the [Mn(DOTA)]^2− complex upon its protonation and formation of the thermodynamically stable diprotonated [Mn(H2DOTA)] complex that exists as a non-hydrated chelate both in solution and in the solid state (Wang and Westmoreland, [2009]). The relaxivity of the diprotonated species at t → 0 time point was determined from the extrapolation of the relaxivity vs. time data collected after acidification of the samples containing the complexes. The X-ray crystallographic structure of [Mn(H2DOTA)] indicates the protonation of two trans carboxylate moieties (e.g., the coordination around the metal ion is similar to that observed in [Mn(trans-DO2A)] as determined by DFT calculations). Thus, the relaxivity of the diprotonated [Mn(H2DOTA)] and [Mn(H2DOTMA)] complexes is expected to be similar to that of [Mn(trans-DO2A)] (when q = 0). The value obtained by us is considerably higher, which highlights the importance of prototropic exchange as a useful tool to improve the relaxivity of the complexes (however, it has to be underlined that the protonation of the complex generally leads to a decrease in kinetic inertness).

[3] = cited from earlier work
[4] = 0.5 T field strength, 25 °C and pH = 7.4
[5] = ligand exchange reaction with trans-CDTA^4− or DTPA^5− in the pH range 8-9.5

SMILES	k1 (proton-assisted dissociation) [1]	t1/2 pH = 7.4 cM = 10^−5 M [1]	r1p [2, 4]	t1/2 0.1 M HCl [1]	further results
O=C([O-])CN1CCNCCN(CC(=O)[O-])CCN(CC(=O)[O-])CC1.[Mn+2] [[Mn(DO3A)]^−]	0.45 ± 0.03 M⁻¹ s⁻¹	1.1 × 10^4 h	1.18 to 1.31 mM⁻¹ s⁻¹		k2 (proton-assisted dissociation) [1]: (3.2 ± 0.3) × 10^2 M^−2s^−1; r1p ([3]; ref Rolla et al. ([2013])): 1.30 mM⁻¹ s⁻¹
NC(=O)CN1CCNCCN(CC(N)=O)CCN(CC(N)=O)CC1.[Mn+2] [[Mn(DO3AM^H)]^2+]	0.94 ± 0.02 M⁻¹ s⁻¹	5.2 × 10^3 h	1.33 mM⁻¹ s⁻¹	0.123 min	
O=P([O-])([O-])CN1CCNCCN(CP(=O)([O-])[O-])CCN(CP(=O)([O-])[O-])CC1.[Mn+2] [[Mn(DO3P)]^4−]		3 × 10^−3 h			k1 (proton-assisted dissociation) [1, 5]: (2.4 ± 0.2) × 10^5 M^−1s^−1; k2 (proton-assisted dissociation) [1, 5]: (2.2 ± 0.3) × 10^14 M^−2s^−1; r1p ([2]; 0.5 T, 25 °C, determined in the pH range of 8.5–9.3): 2.23^[b] mM^−1s^−1; relaxivity ([2]; near pH = 7.4, protonated phosphonate moieties): 2.60 to 2.90 mM⁻¹ s⁻¹
NC(=O)CN1CCN(CC(N)=O)CCN(CC(N)=O)CCN(CC(N)=O)CC1.[Mn+2] [[Mn(DOTAM)]^2+]	(1.6 ± 0.03) × 10^−2 M^−1s^−1		1.11 mM⁻¹ s⁻¹	7.17 min	r1p ([3]; 0.5 T field strength (20 MHz) and 37 °C, ref Wang and Westmoreland ([2009])): 0.96 mM⁻¹ s⁻¹
O=C([O-])CN1CCOCCN(CC(=O)[O-])CCN(CC(=O)[O-])CC1.[Mn+2] [[Mn(ODO3A)]^−]	27 ± 2 M⁻¹ s⁻¹	1.8 × 10^2 h	1.40 mM⁻¹ s⁻¹		k2 (proton-assisted dissociation) [1]: (1.5 ± 0.3) × 10^5 M^−2s^−1
O=C([O-])CNC(=O)CN1CCN(CC(=O)NCC(=O)[O-])Cc2cccc(n2)CN(CC(=O)NCC(=O)[O-])CC1.[Mn+2] [[Mn(PC3AM^Gly)]^−]			1.44 mM⁻¹ s⁻¹	5.83 min	k1 (proton-assisted dissociation) ([1]; proton-assisted dissociation of the [Mn(H3L)] complex): (1.64 ± 0.02) × 10^−2[c] M^−1s^−1; k0 (spontaneous dissociation) ([1]; spontaneous dissociation of the [Mn(H3L)] complex): (3.4 ± 0.2) × 10^−4[c] s^−1
NC(=O)CN1CCN(CC(N)=O)Cc2cccc(n2)CN(CC(N)=O)CC1.[Mn+2] [[Mn(PC3AM^H)]^2+]	(1.07 ± 0.01) × 10^−2 M^−1s^−1		1.21 mM⁻¹ s⁻¹	10.8 min	
